Key:
[1] = standard pressure of about 760 mm Hg; cited from earlier work
[2] = Boiling point / liquid-gas phase transition temperature of core gases; assay type: physicochemical; conditions: interstitial pressure of 795 mm Hg; gas law approximation
Source text: Applicant's gaseous precursors include, for example, fluorinated carbons, perfluorocarbons, sulfur hexafluoride, perfluoro ethers and combinations thereof. As the stilled artisan will appreciate, a particular fluorinated compound, such as sulfur hexafluoride, a perfluorocarbon or a perfluoro ether, may exist in the liquid state when the compositions are first made, and are thus used as a gaseous precursor. Whether the fluorinated compound is a liquid generally depends on its liquid/gas phase transition temperature, or boiling point. For example, a preferred perfluorocarbon, perfluoropentane, has a liquid/gas phase transition temperature (boiling point) of 29.5° C. This means that perfluoropentane is generally a liquid at room temperature (about 25° C.), but is converted to a gas within the human body, the normal temperature of which is about 37° C., which is above the transition temperature of perfluoropentane. Thus, under normal circumstances, perfluoropentane is a gaseous precursor. As known to one skilled in the art, the effective boiling point of a substance may be related to the pressure to which that substance is exposed. This relationship is exemplified by the ideal gas law: PV=nRT, where P is pressure, V is volume, n is moles of substance, R is the gas constant, and T is temperature. […] Conversely, as pressure decreases, the effective boiling point decreases. […]

For `FC(F)(F)C(F)(F)C(F)(F)C(F)(F)C(F)(F)F` [Perfluoropentane], the “liquid/gas phase transition temperature (boiling point)” value [1] is given as 29.5 °C and the “boiling point at interstitial pressure” value [2] is given as “about 30.5 °C”.

— patent US10279053B2, “Microbubble compositions, method of making same, and method using same” (NuvOx Pharma LLC, priority 2011, dated 2019)
